In US8440646B1 (priority 2006, dated 2013):
≈ marks a conversion by molar mass, not a printed value. Read-outs that look alike come from different tables or passages of the source.

Key:
protein synthesis = details: cited from earlier work
B. anthracis Vollum1B = experiment: microbe, parasite or virus in culture; assay type: cell-based; details: Bacillus anthracis
B. anthracis panel = experiment: microbe, parasite or virus in culture; assay type: cell-based; details: Bacillus anthracis
B. anthracis V770NPIR = assay type: cell-based
S. pneumoniae PBS1339 = system: S. pneumoniae PBS1339; design: species or system mice; details: mouse, in vivo
B. anthracis Sterne = experiment: microbe, parasite or virus in culture; assay type: cell-based; details: Bacillus anthracis
16S rRNA = details: cited from earlier work
B. cereus 98/2658 = experiment: microbe, parasite or virus in culture; assay type: cell-based; details: Bacillus cereus
S. aureus RN450 = experiment: microbe, parasite or virus in culture; assay type: cell-based; details: Staphylococcus aureus
E. faecium 494 = experiment: microbe, parasite or virus in culture; assay type: cell-based; details: Enterococcus faecium
B. cereus 97/4144 = experiment: microbe, parasite or virus in culture; assay type: cell-based; details: Bacillus cereus
[1] = system: Peptidoglycan synthesis of S. aureus RN450; experiment: microbe, parasite or virus in culture; assay type: cell-based; details: Staphylococcus aureus
S. aureus MRSA5 = experiment: microbe, parasite or virus in culture; assay type: cell-based; details: Staphylococcus aureus
E. faecalis 29212 = experiment: microbe, parasite or virus in culture; assay type: cell-based; details: Enterococcus faecalis
B. cereus 95/3032 = experiment: microbe, parasite or virus in culture; assay type: cell-based; details: Bacillus cereus
B. anthracis Ame = experiment: microbe, parasite or virus in culture; assay type: cell-based; details: Bacillus anthracis
S. pneumoniae 700905 = experiment: microbe, parasite or virus in culture; assay type: cell-based; details: Streptococcus pneumoniae
S. pneumoniae 157E = experiment: microbe, parasite or virus in culture; assay type: cell-based; details: Streptococcus pneumoniae
B. anthracis V770 = experiment: microbe, parasite or virus in culture; assay type: cell-based; details: Bacillus anthracis
B. cereus 98/2620 = experiment: microbe, parasite or virus in culture; assay type: cell-based; details: Bacillus cereus
S. aureus RN4250 = experiment: microbe, parasite or virus in culture; assay type: cell-based
[2] = system: Protein synthesis of S. aureus RN450; experiment: microbe, parasite or virus in culture; assay type: cell-based; details: Staphylococcus aureus

Compound: C[C@H]1c2cccc(O)c2C(=O)C2=C(O)[C@]3(O)C(=O)C(C(N)=O)=C(O)[C@@H](N(C)C)[C@@H]3[C@@H](O)[C@@H]21 [Doxycycline, reference compound]
- inhibition of protein synthesis in words (protein synthesis): potent inhibitors of protein synthesis
- MIC (B. anthracis Vollum1B): 0.06 µg/mL (≈ 0.135 µM)
- MIC50 (B. anthracis panel): 0.06 µg/mL (≈ 0.135 µM)
- MIC90 (B. anthracis panel): 0.25 µg/mL (≈ 0.563 µM)
- susceptibility in words (B. anthracis V770NPIR): fully doxycycline-resistant
- PD50 (S. pneumoniae PBS1339; iv): 7.1 mg/kg
- PD50 (S. pneumoniae PBS1339; po): 35.3 mg/kg
- MIC (B. anthracis Sterne): 0.12 µg/mL (≈ 0.27 µM)
- effect on reactivity of nucleotides within the 16S rRNA (chemical footprint) (16S rRNA): affect the reactivity of nucleotides
- MIC (B. cereus 98/2658): ≤ 0.06 µg/mL
- MIC (S. aureus RN450): 0.06 µg/mL (≈ 0.135 µM)
- MIC (E. faecium 494): 16 µg/mL (≈ 36 µM)
- MIC (B. cereus 97/4144): 4 µg/mL (≈ 9 µM)
- IC50 ([1]; read-out: Peptidoglycan synthesis IC50): 3.9 µg/mL (≈ 8.78 µM)
- IC90 ([1]; read-out: Peptidoglycan synthesis IC90): 18.2 µg/mL (≈ 41 µM)
- MIC (S. aureus MRSA5): 4 µg/mL (≈ 9 µM)
- MIC (E. faecalis 29212): 4 µg/mL (≈ 9 µM)
- MIC (B. cereus 95/3032): ≤ 0.06 µg/mL
- MIC (B. anthracis Ame): < 0.03 µg/mL
- MIC (S. pneumoniae 700905): 4 µg/mL (≈ 9 µM)
- MIC (S. pneumoniae 157E): 0.06 µg/mL (≈ 0.135 µM)
- MIC (B. anthracis V770): 1 µg/mL (≈ 2.25 µM)
- MIC (B. cereus 98/2620): 4 µg/mL (≈ 9 µM)
- susceptibility in words (S. aureus RN4250): resistant
- MIC (S. aureus RN4250; Staphylococcus aureus, RN4250): 4 µg/mL (≈ 9 µM)
- IC50 ([2]; read-out: Protein synthesis IC50): < 0.03 µg/mL
- IC90 ([2]; read-out: Protein synthesis IC90): < 0.03 µg/mL
